Data reported in US10150728B2, “Alkylene derivatives” (Shionogi & Co., Ltd., priority 2013, dated 2018).

The compounds below were run against recombinant human ACC2 (Homo sapiens (Human), UniProt O00763) (assay: Measurement of inhibitory activity on human ACC2 (MALDI-TOF MS, acetyl CoA to malonyl CoA conversion)). Conditions: Table 154.
Assay type: biochemical
Source text: Preparation 1: Preparation of Recombinant Human ACC2
After a cDNA encoding human ACC2 (27 amino acid residue to 2458 amino acid residues from the N-terminus) was cloned from human kidney cDNA library (Clontech), human ACC2 gene containing His-tag sequence at 5′ terminus was inserted into pFastBac1 (Invitrogen). Recombinant baculovirus was generated using Bac-to-Bac baculovirus expression system (Invitrogen) according to the manufacturer's protocol. To express human ACC2, Sf-9 cells were infected with recombinant baculovirus. After infected cells were disrupted, the filtrated lysate was subjected to Ni-affinity chromatography and anion-exchange chromatography. The fractions containing human ACC2 protein were pooled as recombinant human ACC2 solution.
The Measurement of Inhibitory Activity on Human ACC1 and the ACC2
Recombinant human ACC1 and recombinant human ACC2, which were prepared by the method mentioned above, were preincubated with assay buffer solution (50 mM HEPES-KOH (pH 7.4), 10 mM magnesium chloride, 6-10 mM potassium citrate, 4 mM reduced form of glutathione, 1.5 mg/ml bovine serum albumin) for one hour. Then, 0.2 μL of each this invention compound solution (in DMSO) were dispensed to 384-well microplate, 5 μL of the preincubated enzyme solution and 5 μL of substrate solution (50 mM HEPES-KOH (pH 7.4), 1 mM ATP, 0.8 mM acetyl CoA and 25-50 mM potassium bicarbonate) were added to microplate. After centrifugation and shaking, the reaction mixtures were incubated in a humidified box at room temperature for 1 to 3 hours. After the incubation, the enzyme reactions were stopped by the addition of EDTA. Then, after the samples were cocrystallized with CHCA (α-cyano-4-hydroxy cinnamic acid) matrices on MALDI target plate, by using the matrix assist laser […] time-of-flight mass spectrometer (MALDI-TOF MS), samples were measured in reflector negative mode. Deprotonated ions of acetyl CoA (AcCoA) of substrate and malonyl CoA (MalCoA) of the reaction product were detected, then, the conversion rates of acetyl CoA to malonyl CoA was calculated by the intensity of [MalCoA-H]−/(Intensity of [MalCoA-H]−+Intensity of [AcCoA-H]−) using each signal strength. […] In addition, potassium citrate concentrations in assay buffer solution, potassium hydrogen carbonate concentrations in substrate solution and incubation time were adjusted by each lot of enzyme.

Sequence of recombinant human ACC2 (O00763 27-2458): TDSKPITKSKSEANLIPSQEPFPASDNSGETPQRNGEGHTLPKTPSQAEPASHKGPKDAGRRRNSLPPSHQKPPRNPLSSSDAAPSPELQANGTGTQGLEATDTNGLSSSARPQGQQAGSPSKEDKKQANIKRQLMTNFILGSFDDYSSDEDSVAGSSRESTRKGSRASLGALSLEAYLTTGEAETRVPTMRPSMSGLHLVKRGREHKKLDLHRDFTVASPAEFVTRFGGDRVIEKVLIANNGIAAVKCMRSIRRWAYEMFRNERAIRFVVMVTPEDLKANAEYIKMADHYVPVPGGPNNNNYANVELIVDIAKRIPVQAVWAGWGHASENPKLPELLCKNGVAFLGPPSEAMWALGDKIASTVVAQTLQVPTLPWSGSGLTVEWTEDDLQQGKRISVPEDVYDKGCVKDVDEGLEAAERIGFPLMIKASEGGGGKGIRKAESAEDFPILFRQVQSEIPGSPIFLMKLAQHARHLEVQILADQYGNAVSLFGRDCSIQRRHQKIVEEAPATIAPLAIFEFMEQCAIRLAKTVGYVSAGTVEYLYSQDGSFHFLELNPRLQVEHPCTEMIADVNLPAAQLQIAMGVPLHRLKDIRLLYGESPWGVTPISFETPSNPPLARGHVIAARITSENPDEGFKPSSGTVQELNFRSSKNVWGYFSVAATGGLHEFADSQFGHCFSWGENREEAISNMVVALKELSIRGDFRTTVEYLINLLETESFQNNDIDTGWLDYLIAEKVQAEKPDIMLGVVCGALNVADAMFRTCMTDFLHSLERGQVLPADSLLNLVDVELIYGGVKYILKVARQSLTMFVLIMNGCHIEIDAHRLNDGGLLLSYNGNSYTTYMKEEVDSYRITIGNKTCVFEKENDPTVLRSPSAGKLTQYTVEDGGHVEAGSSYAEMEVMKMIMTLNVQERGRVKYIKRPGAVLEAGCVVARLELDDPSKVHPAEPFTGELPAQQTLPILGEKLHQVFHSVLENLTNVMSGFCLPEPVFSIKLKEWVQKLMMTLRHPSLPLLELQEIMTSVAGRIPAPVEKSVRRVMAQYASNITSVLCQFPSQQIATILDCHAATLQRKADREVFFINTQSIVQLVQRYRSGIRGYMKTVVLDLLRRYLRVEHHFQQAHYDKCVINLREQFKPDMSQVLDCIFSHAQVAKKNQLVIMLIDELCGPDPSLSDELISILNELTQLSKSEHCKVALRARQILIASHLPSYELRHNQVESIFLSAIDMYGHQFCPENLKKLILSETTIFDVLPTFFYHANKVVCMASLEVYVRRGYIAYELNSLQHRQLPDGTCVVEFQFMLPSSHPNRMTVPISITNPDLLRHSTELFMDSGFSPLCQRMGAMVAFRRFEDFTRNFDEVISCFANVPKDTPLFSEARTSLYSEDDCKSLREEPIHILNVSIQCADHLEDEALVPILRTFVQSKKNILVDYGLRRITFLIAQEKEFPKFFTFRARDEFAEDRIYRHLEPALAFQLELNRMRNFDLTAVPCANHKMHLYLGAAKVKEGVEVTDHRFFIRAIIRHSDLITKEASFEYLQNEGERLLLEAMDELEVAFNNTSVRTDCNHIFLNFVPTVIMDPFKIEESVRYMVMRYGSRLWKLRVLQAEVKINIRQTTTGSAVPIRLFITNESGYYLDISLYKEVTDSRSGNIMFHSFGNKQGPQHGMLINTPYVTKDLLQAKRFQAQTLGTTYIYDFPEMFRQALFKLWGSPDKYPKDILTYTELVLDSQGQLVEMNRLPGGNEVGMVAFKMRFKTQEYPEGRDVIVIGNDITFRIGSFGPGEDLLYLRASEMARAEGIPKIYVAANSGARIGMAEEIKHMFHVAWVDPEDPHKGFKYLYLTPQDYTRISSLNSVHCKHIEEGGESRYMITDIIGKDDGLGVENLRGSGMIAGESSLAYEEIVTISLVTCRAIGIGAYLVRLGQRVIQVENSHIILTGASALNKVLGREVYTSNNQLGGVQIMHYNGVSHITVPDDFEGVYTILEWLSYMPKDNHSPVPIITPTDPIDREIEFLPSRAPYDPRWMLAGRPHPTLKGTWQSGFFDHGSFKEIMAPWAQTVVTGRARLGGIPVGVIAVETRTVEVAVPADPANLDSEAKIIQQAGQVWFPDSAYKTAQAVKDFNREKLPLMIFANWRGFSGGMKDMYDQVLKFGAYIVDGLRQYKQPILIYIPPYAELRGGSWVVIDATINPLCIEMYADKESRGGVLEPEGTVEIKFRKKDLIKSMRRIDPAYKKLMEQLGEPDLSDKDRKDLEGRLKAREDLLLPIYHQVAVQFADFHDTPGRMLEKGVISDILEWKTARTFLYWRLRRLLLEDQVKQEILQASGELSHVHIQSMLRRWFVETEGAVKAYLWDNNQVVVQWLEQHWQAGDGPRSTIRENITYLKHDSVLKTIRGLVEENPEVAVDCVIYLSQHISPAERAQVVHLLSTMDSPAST

| Structure (SMILES) | IC50 [nM] |
| --- | --- |
| CCCc1ccc(Oc2ccc(OC[C@H](C)NC(C)=O)cn2)c(Cl)c1 [Compound I-004] | 3730 |
| CCCc1ccc(Oc2ccc(OC[C@H](C)NC(C)=O)cc2)c(Cl)c1 [Compound I-005] | 184 |
| CCCc1ccc(Oc2ccc(OC[C@H](C)NC(N)=O)cc2)c(Cl)c1 [Compound I-006] | 348 |
| CCCc1ccc(Oc2ccc(OC[C@H](C)NC(=O)NCC)cc2)c(Cl)c1 [Compound I-007] | 1390 |
| CC(=O)N[C@@H](C)CC(=O)c1ccc(Oc2ccc(OCC3CC3)cc2Cl)nc1 [Compound I-008] | 220 |
| CCCc1ccc(Oc2ccc(C(=O)C[C@H](C)NC(C)=O)nc2)c(Cl)c1 [Compound I-009] | 1060 |
| CCCc1ccc(Oc2ccc(OCC[C@H](C)NC(C)=O)cc2)c(Cl)c1 [Compound I-010] | 1010 |
| CCCc1ccc(Oc2ccc(O[C@@H](C)[C@H](C)NC(C)=O)nc2)c(Cl)c1 [Compound I-011] | 120 |
| CC(=O)N[C@@H](C)COc1ccc(Oc2ccc3nc(C(C)C)sc3c2Cl)cn1 [Compound I-012] | 64 |
| CC(=O)N[C@@H](C)COc1ccc(Oc2ccc3nc(C(C)C)sc3c2C#N)cn1 [Compound I-013] | 395 |
| CC(=O)N[C@@H](C)[C@H](C)Oc1ccc(Oc2ccc3nc(C(C)C)sc3c2Cl)cn1 [Compound I-014] | 759 |
| CCC(C)(C)c1ccc(Oc2ccc(OC[C@H](C)NC(C)=O)nc2)c(Cl)c1 [Compound I-016] | 400 |
| CC(=O)N[C@@H](C)COc1ccc(Oc2ccc3nc(C(C)C)sc3c2F)cn1 [Compound I-018] | 75 |
| CCCc1ccc(Oc2cnc(OC[C@H](C)NC(C)=O)cn2)c(Cl)c1 [Compound I-021] | 502 |
| CC(=O)N[C@@H](C)COc1ccc(Oc2ccc3c(c2Cl)CCN(C(=O)OC(C)(C)C)C3)cn1 [Compound I-022] | 1250 |
| CC(=O)N[C@@H](C)COc1ccc(Oc2ccc3c(c2Cl)CCN(c2ncc(F)cn2)C3)cn1 [Compound I-023] | 38 |
| CC(C)c1nc2ccc(Oc3ccc(OC[C@H](C)NC(N)=O)nc3)c(Cl)c2s1 [Compound I-024] | 133 |
| CC(C)c1nc2ccc(Oc3ccc(OC[C@H](C)NC(=O)CO)nc3)c(Cl)c2s1 [Compound I-025] | 652 |
| CC(=O)N[C@@H](C)COc1cnc(Oc2ccc3nc(C(C)C)sc3c2F)cn1 [Compound I-026] | 20 |

| Structure (SMILES) | IC50 [nM] |
| --- | --- |
| CC(=O)N[C@@H](C)COc1cnc(Oc2ccc3nc(C(C)(C)O)sc3c2Cl)cn1 [Compound I-027] | 378 |
| CC(=O)N[C@@H](C)COc1cnc(Oc2ccc3nc(C(C)(F)F)sc3c2Cl)cn1 [Compound I-028] | 28 |
| CC(=O)N[C@@H](C)COc1ccc(Oc2cc(F)c3nc(C(C)C)sc3c2Cl)cn1 [Compound I-029] | 68 |
| CC(=O)N[C@@H](C)COc1cnc(Oc2ccc3nc(C(C)C)oc3c2F)cn1 [Compound I-031] | 52 |
| CC(=O)N[C@@H](C)COc1cnc(Oc2c(F)cc3nc(C(C)C)sc3c2F)cn1 [Compound I-032] | 52 |
| CCC(F)(F)c1nc2ccc(Oc3cnc(OC[C@H](C)NC(C)=O)cn3)c(Cl)c2s1 [Compound I-033] | 50 |
| CC(=O)N[C@@H](C)COc1cnc(Oc2ccc3nc(C4CC4)sc3c2F)cn1 [Compound I-034] | 49 |
| CC(=O)N[C@@H](C)COc1cnc(Oc2ccc3nc(C4(C)CC4)sc3c2Cl)cn1 [Compound I-035] | 102 |
| CC(=O)N[C@@H](C)COc1cnc(Oc2ccc3nc(C(C)(F)F)sc3c2F)cn1 [Compound I-036] | 15 |
| CC(=O)N[C@@H](C)COc1cnc(Oc2ccc3nc(C(C)C)sc3c2Cl)cn1 [Compound I-038] | 72 |
| CCOc1nc2ccc(Oc3cnc(OC[C@H](C)NC(C)=O)cn3)c(Cl)c2s1 [Compound I-039] | 16 |
| CC(=O)N[C@@H](C)COc1cnc(Oc2ccc3nc(C(C)(F)F)sc3c2C#N)cn1 [Compound I-041] | 102 |
| CC(=O)N[C@@H](C)CO[C@H]1CC[C@H](Oc2ccc3nc(C(C)C)sc3c2F)CC1 [Compound I-042] | 15 |
| CC(=O)N[C@@H](C)COc1cnc(Oc2ccc3nc(C(C)(F)F)oc3c2F)cn1 [Compound I-043] | 93 |
| CC(=O)N[C@@H](C)CO[C@H]1CC[C@@H](Oc2ccc3nc(C(C)C)sc3c2F)CC1 [Compound I-044] | 756 |
| CCOc1nc2ccc(Oc3cnc(OC[C@H](C)NC(C)=O)cn3)c(F)c2s1 [Compound I-045] | 8 |
| CC(=O)N[C@@H](C)CO[C@H]1CC[C@H](Oc2ccc3nc(C(C)C)sc3c2Cl)CC1 [Compound I-046] | 213 |
| CC(=O)N[C@@H](C)CO[C@H]1CC[C@H](Oc2ccc3nc(C(C)(C)O)sc3c2Cl)CC1 [Compound I-047] | 336 |

The next lines start with the values.

| IC50 [nM] | Structure (SMILES) |
| --- | --- |
| 83 | CC(=O)N[C@@H](C)[C@H](C)Oc1cnc(Oc2ccc3nc(C(C)C)sc3c2F)cn1 [Compound I-048] |
| 134 | CC(=O)N[C@@H](C)[C@@H](C)Oc1cnc(Oc2ccc3nc(C(C)C)sc3c2F)cn1 [Compound I-049] |
| 10 | CC(=O)N[C@@H](C)COc1cnc(Oc2ccc3nc(C4(F)CC4)sc3c2F)cn1 [Compound I-050] |
| 84 | CC(=O)N[C@@H](C)CO[C@H]1CC[C@H](Oc2ccc3nc(C(C)C)sc3c2C#N)CC1 [Compound I-051] |
| 265 | CC(=O)N[C@@H](C)CO[C@H]1CC[C@H](Oc2ccc3nc(C(C)(F)F)sc3c2Cl)CC1 [Compound I-052] |
| 12 | CC(=O)N[C@@H](C)CO[C@H]1CC[C@H](Oc2ccc3nc(C(C)(F)F)sc3c2F)CC1 [Compound I-053] |
| 15 | CCOc1nc2ccc(O[C@H]3CC[C@H](OC[C@H](C)NC(C)=O)CC3)c(Cl)c2s1 [Compound I-054] |
| 13 | CCOc1nc2ccc(O[C@H]3CC[C@H](OC[C@H](C)NC(C)=O)CC3)c(F)c2s1 [Compound I-055] |
| 57 | CC(=O)N[C@@H](C)[C@H](C)Oc1cnc(Oc2ccc3nc(C(C)(F)F)sc3c2F)cn1 [Compound I-056] |
| 166 | CC(=O)N[C@@H](C)[C@@H](C)Oc1cnc(Oc2ccc3nc(C(C)(F)F)sc3c2F)cn1 [Compound I-057] |
| 29 | CCOc1nc2ccc(Oc3cnc(O[C@@H](C)[C@H](C)NC(C)=O)cn3)c(F)c2s1 [Compound I-059] |
| 115 | CCOc1nc2ccc(Oc3cnc(O[C@H](C)[C@H](C)NC(C)=O)cn3)c(F)c2s1 [Compound I-061] |
| 24 | CC(=O)N[C@@H](C)CO[C@H]1CC[C@H](Oc2ccc3nc(C(C)C)oc3c2F)CC1 [Compound I-062] |
| 128 | CCc1nsc2c(Cl)c(Oc3cnc(OC[C@H](C)NC(C)=O)cn3)ccc12 [Compound I-063] |
| 1120 | CC(=O)N[C@@H](C)CO[C@H]1CC[C@H](Oc2ccc3nc(C(C)C)oc3c2Cl)CC1 [Compound I-064] |
| 89 | CCOc1nc2cc(Cl)c(Oc3cnc(OC[C@H](C)NC(C)=O)cn3)cc2s1 [Compound I-065] |
| 1300 | CC(=O)N[C@@H](C)CO[C@H]1CC[C@H](Oc2ccc3sc(C(C)C)nc3c2Cl)CC1 [Compound I-066] |
| 25 | CCOc1nc2ccc(Oc3cnc(OC[C@H](C)NC(C)=O)cn3)c(C#N)c2s1 [Compound I-068] |
| 1400 | CCOc1ncc2c(Cl)c(Oc3cnc(OC[C@H](C)NC(C)=O)cn3)ccc2n1 [Compound I-069] |
| 469 | CC(=O)N[C@@H](C)COc1cnc(Oc2ccc3sc(C(C)C)nc3c2Cl)cn1 [Compound I-070] |
| 54 | CCOc1nc2ccc(Oc3cnc(OC[C@H](C)NC(=O)CO)cn3)c(Cl)c2s1 [Compound I-071] |
| 154 | CC(=O)N[C@@H](C)COc1cnc(Oc2ccc3nc(N4CC(F)(F)C4)ncc3c2Cl)cn1 [Compound I-072] |
| 221 | CC(=O)N[C@@H](C)COc1cnc(Oc2ccc3nc(N4CCC(F)(F)CC4)ncc3c2Cl)cn1 [Compound I-073] |
| 85 | CCOc1nc2ccc(O[C@H]3C[C@H](OC[C@H](C)NC(C)=O)C3)c(F)c2s1 [Compound I-074] |
| 20 | CCOc1nc2ccc(O[C@H]3C[C@H](OC[C@H](C)NC(C)=O)C3)c(Cl)c2s1 [Compound I-075] |
| 102 | CCOc1nc2ccc(O[C@H]3C[C@@H](OC[C@H](C)NC(C)=O)C3)c(F)c2s1 [Compound I-076] |
| 168 | CCOc1nc2ccc(O[C@H]3C[C@@H](OC[C@H](C)NC(C)=O)C3)c(Cl)c2s1 [Compound I-077] |
| 189 | CCOc1nc2ccc(O[C@H]3CC[C@](C)(OC[C@H](C)NC(C)=O)CC3)c(F)c2s1 [Compound I-078] |
| 1290 | CC(=O)N[C@@H](C)COc1cnc(Oc2ccc3c(c2Cl)OCCN(CC(F)(F)F)C3=O)cn1 [Compound I-080] |
